Format in all cases: in vivo
The subject of assay [1] is Amaranthus viridis. Kind of assay: Test Example 3: herbicidal effect test by treatment of dry field farming soil (one day after seeding). As to conditions: 120 g/10a active ingredient, evaluated 14 days after treatment. The method, boiled down:
(§1)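 Dry-field alluvium pots; weed seeds incorporated in top 1 cm; soil spray of diluted emulsion 1 d after seeding, 120 g a.i./10 a in 100 L/10 a. Readout: % reduction of dry weight vs untreated, day 14, duplicates.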

Assay [2] relates to southern crabgrass. The description is as above. As to conditions: 120 g/10a active ingredient, evaluated 14 days after treatment. An outline of the steps:
as §1

The test system of assay [3] is Echinochloa crus-galli. The assay is described as above. As to conditions: 120 g/10a active ingredient, evaluated 14 days after treatment. The method, boiled down: as §1
The test system of assay [4] is Chenopodium album. The description is as above. The note with it: 120 g/10a active ingredient, evaluated 14 days after treatment. The method, boiled down:
as §1

Assay [5] relates to broad leaf weeds (Lindernia pyxidaria and Monochoria vaginalis). Kind of assay: Test Example 2: herbicidal effect test by treatment during growing period in paddy rice cultivation (seven days after seeding). The note with it: 120 g/10a active ingredient, assessed 14 days after treatment, dry weight vs untreated area. The method, boiled down:
(§2)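 Post-emergence paddy water application: compounds were formulated as emulsions, diluted and dropped into flooded pots seven days after sowing at a rate equivalent to 120 g per 10 ares. Efficacy was taken as dry-weight reduction relative to untreated controls after 14 days.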

Assay [6] deals with Echinochloa crus-galli. Described as above. As to conditions: 120 g/10a active ingredient, assessed 14 days after treatment, dry weight vs untreated area. The method, boiled down: as §2
The subject of assay [7] is Scirpus juncoides. Described as above. The note with it: 120 g/10a active ingredient, assessed 14 days after treatment, dry weight vs untreated area. An outline of the steps: as §2
The subject of assay [8] is broad leaf weeds (Lindernia pyxidaria and Monochoria vaginalis). Kind of assay: Test Example 1: herbicidal effect test by treatment of rice paddy soil (immediately after seeding). The note with it: 120 g/10a active ingredient, dry weight vs untreated area, 14 days after treatment. The method, boiled down:
(§3)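 Pre-emergence paddy water application, 120 g a.i./10 ares, applied immediately post-seeding into ~3 cm flood; glasshouse; duplicate pots; dry weight at 14 d → % inhibition = (1 − treated/untreated) × 100.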

For assay [9], the system named is Echinochloa crus-galli. The assay is described as above. The note with it: 120 g/10a active ingredient, dry weight vs untreated area, 14 days after treatment. An outline of the steps: as §3
For assay [10], the system named is Scirpus juncoides. Described as above. The note with it: 120 g/10a active ingredient, dry weight vs untreated area, 14 days after treatment. An outline of the steps: as §3
Assay [11] has as its system Amaranthus viridis. Kind of assay: Test Example 4: herbicidal effect test by treatment of leave and stem in dry field farming (seven days after seeding). The note with it: 120 g/10a active ingredient; emulsion sprayed seven days after seeding; evaluated 14 days after treatment. An outline of the steps:
(§4)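 Weeds were seeded at 20 seeds per species into the top 1 cm of alluvial upland soil in pots, then sprayed 7 days after seeding with water-diluted emulsifiable concentrate at 100 L/10 a, giving 120 g active ingredient/10 a. Duplicate pots; herbicidal rate (%) was 14 days post-treatment, from dry weight versus untreated.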

Assay [12] concerns southern crabgrass. The description is as above. The note with it: 120 g/10a active ingredient; emulsion sprayed seven days after seeding; evaluated 14 days after treatment. The method, boiled down: as §4
The test system of assay [13] is Echinochloa crus-galli. The description is as above. The note with it: 120 g/10a active ingredient; emulsion sprayed seven days after seeding; evaluated 14 days after treatment. An outline of the steps:
as §4

Assay [14] deals with Chenopodium album. The assay is described as above. As to conditions: 120 g/10a active ingredient; emulsion sprayed seven days after seeding; evaluated 14 days after treatment. The method, boiled down: as §4

As to `Cc1c(Cc2ccccc2N(S(=O)(=O)C(F)(F)F)S(=O)(=O)C(F)(F)F)c(=O)on1C1CCCCC1` [Compound 1-990], the “herbicidal rate, Amaranthus viridis” value in [1] came to 0%. Besides, the “herbicidal rate, southern crabgrass” value in assay [2] came out at 50%. The “herbicidal rate, Echinochloa crus-galli” value in assay [3] stood at 50%. The “herbicidal rate, Chenopodium album” value in assay [4] was found to be 50%. Besides, the entries for the “Herbicidal rate (%) Lindernia pyxidaria” value in assay [5] and in assay [8] were 100% and 90%, respectively. Moreover, the “Herbicidal rate (%) Monochoria vaginalis” value in assay [5] and in assay [8] was 80% each time. For the same molecule, the “Herbicidal rate (%) Echinochloa crus-galli” value in assay [6] worked out at 100%; in assay [9], 90%. For the same molecule, the “Herbicidal rate (%) Scirpus juncoides” value in [7] and in assay [10] was 80% throughout. Further, the “herbicidal effect (herbicidal rate), Amaranthus viridis” value (shortened to “herbicidal effect … Amaranthus viridis”) in assay [11] worked out at 50%. In assay [12], the “herbicidal effect (herbicidal rate), southern crabgrass” value (“herbicidal effect … southern crabgrass” below) was 0%. For the same molecule, the “herbicidal effect (herbicidal rate), Echinochloa crus-galli” value in assay [13] was found to be 60%. Also, the “herbicidal effect (herbicidal rate), Chenopodium album” value (from here on “herbicidal effect … Chenopodium album”) in [14] turned out to be 40%.

In the case of `Cc1c(Cc2ccccc2N(S(=O)(=O)C(F)(F)F)S(=O)(=O)C(F)(F)F)c(=O)on1C(C)C1CC1` (centres unmarked) [Compound 1-992], in [1], the “herbicidal rate, Amaranthus viridis” value amounted to 40%. Also, the “herbicidal rate, southern crabgrass” value in [2] amounted to 90%. In addition, the “herbicidal rate, Echinochloa crus-galli” value in assay [3] worked out at 90%. Besides, the “herbicidal rate, Chenopodium album” value in assay [4] amounted to 40%. For the same molecule, the “Herbicidal rate (%) Lindernia pyxidaria” value in assay [5] is listed as 50%; in assay [8], 90%. Besides, the entries for the “Herbicidal rate (%) Monochoria vaginalis” value in assay [5] and in assay [8] were 90% and 100%, respectively. Also, the “Herbicidal rate (%) Echinochloa crus-galli” value in assay [6] came out at 90%; in assay [9], 100%. Moreover, the entries for the “Herbicidal rate (%) Scirpus juncoides” value in [7] and in assay [10] were 80% and 100%, respectively. Also, the “herbicidal effect … Amaranthus viridis” value in assay [11] is reported as 40%. For the same molecule, in assay [12], the “herbicidal effect … southern crabgrass” value came to 50%. For the same molecule, the “herbicidal effect (herbicidal rate), Echinochloa crus-galli” value in [13] was found to be 90%. For the same molecule, the “herbicidal effect … Chenopodium album” value in assay [14] was 40%.

On to `Cc1c(Cc2ccccc2N(S(=O)(=O)C(F)(F)F)S(=O)(=O)C(F)(F)F)c(=O)on1CC1(C)CC1` [Compound 1-993], for which the “herbicidal rate, Amaranthus viridis” value in [1] was 40%. In [2], the “herbicidal rate, southern crabgrass” value was 80%. Further, the “herbicidal rate, Echinochloa crus-galli” value in [3] was determined as 90%. For the same molecule, in [4], the “herbicidal rate, Chenopodium album” value was 40%. Besides, the entries for the “Herbicidal rate (%) Lindernia pyxidaria” value in [5] and in [8] were 50% and 100%, respectively. Further, the “Herbicidal rate (%) Monochoria vaginalis” value in [5] amounted to 60%; in [8] it was 100%. Besides, the “Herbicidal rate (%) Echinochloa crus-galli” value is given as 90% in assay [6] and 100% in assay [9]. Besides, the “Herbicidal rate (%) Scirpus juncoides” value in assay [7] is 90%; in assay [10], 100%. The “herbicidal effect … Amaranthus viridis” value in [11] was 40%. In [12], the “herbicidal effect … southern crabgrass” value was determined as 40%. The “herbicidal effect (herbicidal rate), Echinochloa crus-galli” value in assay [13] turned out to be 60%. Besides, the “herbicidal effect … Chenopodium album” value in assay [14] was found to be 40%.

On to `Cc1c(Cc2ccccc2N(S(=O)(=O)C(F)(F)F)S(=O)(=O)C(F)(F)F)c(=O)on1CCOCC(C)C` [Compound 1-1000], for which the “herbicidal rate, Amaranthus viridis” value in [1] amounted to 40%. Besides, in assay [2], the “herbicidal rate, southern crabgrass” value was 80%. Moreover, the “herbicidal rate, Echinochloa crus-galli” value in [3] worked out at 60%. The “herbicidal rate, Chenopodium album” value in assay [4] is recorded as 40%. Also, the “Herbicidal rate (%) Lindernia pyxidaria” value in assay [5] is listed as 40%; in assay [8] it was 80%. Moreover, the “Herbicidal rate (%) Monochoria vaginalis” value in assay [5] was determined as 70%; in assay [8], 90%. Also, the entries for the “Herbicidal rate (%) Echinochloa crus-galli” value in [6] and in assay [9] were 90% and 100%, respectively. Also, the “Herbicidal rate (%) Scirpus juncoides” value is 90% in [7] and 100% in assay [10]. Moreover, in assay [11], the “herbicidal effect … Amaranthus viridis” value was found to be 40%. In addition, the “herbicidal effect … southern crabgrass” value in [12] is on record as 40%. For the same molecule, in [13], the “herbicidal effect (herbicidal rate), Echinochloa crus-galli” value came out at 60%. Also, in assay [14], the “herbicidal effect … Chenopodium album” value was 0%.

Turning to `Cc1c(Cc2ccccc2N(S(=O)(=O)C(F)(F)F)S(=O)(=O)C(F)(F)F)c(=O)on1CC[S+](C)[O-]` (centres unmarked) [Compound 1-1005], the “herbicidal rate, Amaranthus viridis” value in [1] stood at 40%. Moreover, the “herbicidal rate, southern crabgrass” value in assay [2] stood at 40%. For the same molecule, the “herbicidal rate, Echinochloa crus-galli” value in [3] is recorded as 60%. For the same molecule, in assay [4], the “herbicidal rate, Chenopodium album” value is reported as 40%. For the same molecule, the “Herbicidal rate (%) Lindernia pyxidaria” value in [5] is on record as 70%; in assay [8], 60%. Moreover, the “Herbicidal rate (%) Monochoria vaginalis” value in [5] is listed as 90%; in [8] it was 70%. The “Herbicidal rate (%) Echinochloa crus-galli” value in assay [6] and in [9] was 90% each time. The “Herbicidal rate (%) Scirpus juncoides” value in assay [7] and in assay [10] was 90% each time. In [11], the “herbicidal effect … Amaranthus viridis” value amounted to 40%. In addition, in assay [12], the “herbicidal effect … southern crabgrass” value turned out to be 40%. In assay [13], the “herbicidal effect (herbicidal rate), Echinochloa crus-galli” value was 60%. Further, the “herbicidal effect … Chenopodium album” value in assay [14] turned out to be 40%.

For `Cc1c(Cc2ccccc2N(S(=O)(=O)C(F)(F)F)S(=O)(=O)C(F)(F)F)c(=O)on1CCS(C)(=O)=O` [Compound 1-1006], in assay [1], the “herbicidal rate, Amaranthus viridis” value was determined as 60%. The “herbicidal rate, southern crabgrass” value in assay [2] was 60%. The “herbicidal rate, Echinochloa crus-galli” value in assay [3] turned out to be 80%. In addition, the “herbicidal rate, Chenopodium album” value in assay [4] is given as 60%. Besides, the “Herbicidal rate (%) Lindernia pyxidaria” value was determined as 60% in assay [5] and 70% in [8]. In addition, the “Herbicidal rate (%) Monochoria vaginalis” value in assay [5] stood at 80%; in assay [8] it was 60%. The results for the “Herbicidal rate (%) Echinochloa crus-galli” value in assay [6] and in assay [9] were 80% and 70%, respectively. Further, the “Herbicidal rate (%) Scirpus juncoides” value in [7] and in [10] was 90% each time. For the same molecule, the “herbicidal effect … Amaranthus viridis” value in assay [11] was 40%. Also, the “herbicidal effect … southern crabgrass” value in assay [12] is given as 40%. In addition, in assay [13], the “herbicidal effect (herbicidal rate), Echinochloa crus-galli” value was 40%. In assay [14], the “herbicidal effect … Chenopodium album” value stood at 40%.

Turning to `Cc1c(Cc2ccccc2N(S(=O)(=O)C(F)(F)F)S(=O)(=O)C(F)(F)F)c(=O)on1Cc1ccc(F)cc1` [Compound 1-1014], in [1], the “herbicidal rate, Amaranthus viridis” value was 40%. Further, in assay [2], the “herbicidal rate, southern crabgrass” value is given as 70%. Further, the “herbicidal rate, Echinochloa crus-galli” value in assay [3] amounted to 90%. Besides, in [4], the “herbicidal rate, Chenopodium album” value is given as 40%. The “Herbicidal rate (%) Lindernia pyxidaria” value stood at 80% in [5] and 90% in assay [8]. Further, the “Herbicidal rate (%) Monochoria vaginalis” value in [5] was determined as 80%; in [8] it was 100%. Moreover, the “Herbicidal rate (%) Echinochloa crus-galli” value in assay [6] and in assay [9] was 90% in each case. The “Herbicidal rate (%) Scirpus juncoides” value in assay [7] and in assay [10] was 90% in each case. In addition, the “herbicidal effect … Amaranthus viridis” value in assay [11] was 40%. For the same molecule, the “herbicidal effect … southern crabgrass” value in assay [12] was 40%. Besides, in assay [13], the “herbicidal effect (herbicidal rate), Echinochloa crus-galli” value worked out at 70%. In assay [14], the “herbicidal effect … Chenopodium album” value came out at 50%.

In the case of `CCC(c1ccccc1)n1oc(=O)c(Cc2ccccc2N(S(=O)(=O)C(F)(F)F)S(=O)(=O)C(F)(F)F)c1C` (centres unmarked) [Compound 1-1038], the “herbicidal rate, Amaranthus viridis” value in [1] is on record as 0%. The “herbicidal rate, southern crabgrass” value in [2] was determined as 90%. In [3], the “herbicidal rate, Echinochloa crus-galli” value worked out at 90%. Also, the “herbicidal rate, Chenopodium album” value in [4] was determined as 0%. Also, the “Herbicidal rate (%) Lindernia pyxidaria” value in assay [5] is recorded as 60%; in assay [8], 90%. Moreover, the figures for the “Herbicidal rate (%) Monochoria vaginalis” value in [5] and in [8] were 80% and 90%, respectively. The “Herbicidal rate (%) Echinochloa crus-galli” value in assay [6] and in [9] was 90% in each case. The “Herbicidal rate (%) Scirpus juncoides” value in [7] and in assay [10] was 90% each time. Besides, the “herbicidal effect … Amaranthus viridis” value in assay [11] came to 40%. Also, the “herbicidal effect … southern crabgrass” value in assay [12] was found to be 60%. Besides, the “herbicidal effect (herbicidal rate), Echinochloa crus-galli” value in assay [13] was found to be 90%. The “herbicidal effect … Chenopodium album” value in assay [14] was 40%.

Values taken from patent publication US11109593B2, “Isoxazolin-5-one derivative and herbicide containing same as active ingredient” (HOKKO CHEMICAL INDUSTRY CO., LTD., priority 2017, dated 2021).
